According to patent publication US11925608B2 (YS PHARMTECH, priority 2017, dated 2024):
Where two headings read alike, the source gives them in different places.

Key:
[1] = aqueous solution, cited from earlier work
[2] = Stability of epinephrine formulations after 1 month storage at 50° C. (HPLC potency, degradants, pH, appearance, O.D.); format: physicochemical
Description: Selected samples were also tested for drug chirality. The potency and chirality of drug were analyzed using HPLC methods. The degree of coloration was visually inspected and analytically measured their optical densities using a UV/VIS spectrophotometer at the maximum absorption wavelength (λmax) at 485 nm.

[3] = 1:10 cysteine-to-drug complex and commercial formulation
[4] = non-complex, acetylcysteine levels
[5] = non-complex, mixed antioxidants
[6] = non-complex, thioglycerol levels
[7] = pediatric formulations (1:2000)

Row | SMILES | association constant (K) of the inclusion complex with SBEβCD ([1]; pH 3.5) [M⁻¹] | association constant (K) of the inclusion complex with SBEβCD ([1]; pH 5.5) [M⁻¹] | Appearance ([2]; 1:1 cysteine-to-drug) | O.D. (Absorbance at λmax = 485 nm) ([2]; 1:1 cysteine-to-drug) | Appearance [2, 3] | O.D. (Absorbance at λmax = 485 nm) [2, 3] | Appearance ([2]; 2:1 cysteine-to-drug) | O.D. (Absorbance at λmax = 485 nm) ([2]; 2:1 cysteine-to-drug) | Appearance ([2]; 5:1 cysteine-to-drug) | O.D. (Absorbance at λmax = 485 nm) ([2]; 5:1 cysteine-to-drug) | Appearance [2, 4] | O.D. (Absorbance at λmax = 485 nm) [2, 4] | Appearance ([2]; non-complex, cysteine levels) | O.D. (Absorbance at λmax = 485 nm) ([2]; non-complex, cysteine levels) | Appearance [2, 5] | O.D. (Absorbance at λmax = 485 nm) [2, 5] | Appearance [2, 6] | O.D. (Absorbance at λmax = 485 nm) [2, 6] | Appearance [2, 7] | O.D. (Absorbance at λmax = 485 nm) [2, 7]
1 | CNCC(O)c1ccc(O)c(O)c1 (single isomer, unassigned; (-)) [epinephrine, (−)-3,4-Dihydroxy-α-[(methylamino)methyl]benzyl alcohol] | 488 | 111 | – | – | – | – | – | – | – | – | – | – | – | – | – | – | – | – | – | –
2 | II [0.0005N Iodine] | – | – | Slightly brownish | 0.1206 | Slightly brownish | 0.1354 | Slightly brownish | 0.1206 | Slightly brownish | 0.1290 | Slightly brownish | 0.1354 | Slightly brownish | 0.1354 | Slightly brownish | 0.1354 | Slightly brownish | 0.1354 | Slightly brownish | 0.1354
